Experimental data from US10513519B2, “Solid forms of (1S,4S)-4-(2-(((3S,4R)-3-fluorotetrahydro-2H-pyran-4-yl)amino)-8-((2,4,6-trichlorophenyl)amino)-9H-purin-9-yl)-1-methylcyclohexane-1-carboxamide and methods of their use” (Signal Pharmaceuticals, LLC, priority 2016, dated 2019).
Converted amounts (≈) assume the structure as drawn. Read-outs that look alike come from different tables or passages of the source. Values belong to the molecule of their own block, whether it stands above or below them.

Key:
[1] = Dynamic vapor sorption (hygroscopicity); type: physicochemical; settings: for DVS wt gain: @ 95% RH, Compound 1 HCl salt forms; for hygroscopicity (in words): DVS; for water uptake: between 0 and 90% RH; for DVS water uptake: up to 90% RH, Compound 1 citrate salt polymorphs
Procedure: Dynamic vapor sorption (DVS) was measured using DVS advantage (Surface Measurement Systems Ltd). The samples were tested under isotherm (25° C.) at a targeted RH of 0 to 95% full cycle in step mode. For an isotherm test, the chamber temperature was maintained by a water bath at constant 25.0±1.0° C. The relative humidity in the sample chamber was generated by combining different flows of wet and dry nitrogen with variable flow rates. The analysis was performed in 10% RH increments. Sampling rate was 1 sec save data rate is 20 sec. The dm/dt (%) value was set at 0.001 with a dm/dt window of 5 min., a minimum stability duration time of 10 min, and a maximum stage time of 180 min. The sample's equilibrium weight corresponding to each RH was recorded. A sorption isotherm was obtained by plotting equilibrium moisture content versus RH.
Hygroscopicity was determined on a Surface Measurement Systems DVS. A sample size of 5-20 mg was loaded into the DVS instrument sample pan and the sample was analyzed on a DVS automated sorption analyzer at room temperature. The relative humidity was increased from 0% to 90% RH at 10% RH step, then decreased in a similar manner to accomplish a full adsorption/desorption cycle.

[2] = Approximate solubility in various solvents at room temperature; type: physicochemical
Procedure: (§1) The resulting mixture was agitated for about 1 day at room temperature. If all of the solids appeared to be dissolved by visual inspection, the estimated solubility was calculated based on the total volume of solvent used to give a complete solution. If solids were present, a known volume of filtrate was evaporated to dryness and the weight of the residue was measured to estimate the solubility.
as §1, with “for” for “for about”

[3] = Form conversion / form transfer experiments (humidity, drying, competitive slurries); type: physicochemical
Text: The thermodynamic relationship between the two forms was explored through form conversion experiments (Table 31).

[4] = Compression test (2000-psi pressure); type: physicochemical; settings: 2000-psi pressure for about 1 minute
[5] = Stability of free base in solution and in solid state under stress conditions; type: physicochemical
[6] = Solid state stability of salt forms and free base; type: physicochemical
physchem [7] = settings: FaSSGF, fassgf or other biorelevant
[8] = Solubility in biorelevant media (FeSSIF, FaSSIF, FaSSGF, FeSSGF)
[9] = Solubility of salt forms and free base in water, SGF, SIF and 0.5% HPMC in […] Tween 80
physchem [10] = settings: simulated gastric fluid, thermodynamic from solid
[11] = test system: TEAD reporter (8×GTIIC-luciferase) in W138 VA13 cells; assay: TEAD reporter assay; type: cell-based; settings: 24 or 72 hours
Procedure: TEAD reporter activity was analyzed using W138 VA13 cells stably expressing a YAP/TAZ responsive synthetic promoter driving luciferase expression (8×GTIIC-luciferase). 10,000 cells per well were seeded on a white-walled 96-well plate and left overnight. After 16-20 hours, cells were treated with compound and TEAD reporter activity was measured 24 or 72 hours later using Bright Glo luciferase assay (Promega) according to the manufacturer's instructions. This assay was performed 3 times for Compound 1 and twice for Trametinib.

[12] = Approximate solubility of HCl salt starting material in selected organic solvents; type: physicochemical; settings: room temperature
Procedure: Solubility of the starting mater in selected organic solvents was determined by mixing with selected solvents at room temperature.

Molecule: CC1(C(N)=O)CCC(n2c(Nc3c(Cl)cc(Cl)cc3Cl)nc3cnc(NC4CCOCC4F)nc32)CC1.Cl.O (centres unmarked) [Form 7]
DVS wt gain [1]: ~4.5% wt

Molecule: CC1(C(N)=O)CCC(n2c(Nc3c(Cl)cc(Cl)cc3Cl)nc3cnc(NC4CCOCC4F)nc32)CC1.Cl.O (centres unmarked) [Form 8]
DVS wt gain [1]: ~2% wt

Molecule: C[C@]1(C(N)=O)CC[C@@H](n2c(Nc3c(Cl)cc(Cl)cc3Cl)nc3cnc(N[C@@H]4CCOC[C@H]4F)nc32)CC1 [Form A]
solubility at 1 day ([2]; 1,4-dioxane, organic solvent or mixture, thermodynamic from solid, 1,4-dioxane): > 50 mg/mL
solubility at 1 day ([2]; 2-MeTHF, organic solvent or mixture, thermodynamic from solid): > 50 mg/mL
solubility at 1 day ([2]; DCM, organic solvent or mixture, thermodynamic from solid): > 50 mg/mL
solubility at 1 day ([2]; EtOAc, organic solvent or mixture, thermodynamic from solid): > 100 mg/mL
solubility at 1 day ([2]; EtOH, organic solvent or mixture, thermodynamic from solid): > 20 mg/mL
solubility at 1 day ([2]; EtOH/water (1:1), aqueous with cosolvent or surfactant or cyclodextrin, thermodynamic from solid, EtOH/water (1:1)): > 3 mg/mL
solubility at 1 day ([2]; IPA, organic solvent or mixture, thermodynamic from solid): > 10 mg/mL
solubility at 1 day ([2]; IPAc, organic solvent or mixture, thermodynamic from solid): > 50 mg/mL
solubility at 1 day ([2]; MEK, organic solvent or mixture, thermodynamic from solid): > 50 mg/mL
solubility at 1 day ([2]; MIBK, organic solvent or mixture, thermodynamic from solid): > 50 mg/mL
solubility at 1 day ([2]; MTBE, organic solvent or mixture, thermodynamic from solid): > 20 mg/mL
solubility at 1 day ([2]; MeCN, organic solvent or mixture, thermodynamic from solid): > 3 mg/mL
solubility at 1 day ([2]; MeCN/water (1:1), aqueous with cosolvent or surfactant or cyclodextrin, thermodynamic from solid, MeCN/water (1:1)): > 50 mg/mL
solubility at 1 day ([2]; MeOAc, organic solvent or mixture, thermodynamic from solid): > 100 mg/mL
solubility at 1 day ([2]; MeOH, organic solvent or mixture, thermodynamic from solid): > 50 mg/mL
solubility at 1 day ([2]; THF, organic solvent or mixture, thermodynamic from solid): > 100 mg/mL
solubility at 1 day ([2]; THF/water (1:1), aqueous with cosolvent or surfactant or cyclodextrin, thermodynamic from solid, THF/water (1:1)): > 50 mg/mL
solubility at 1 day ([2]; acetone, organic solvent or mixture, thermodynamic from solid): > 100 mg/mL
solubility at 1 day ([2]; heptane, organic solvent or mixture, thermodynamic from solid): < 1 mg/mL
solubility at 1 day ([2]; n-BuOH, organic solvent or mixture, thermodynamic from solid): > 20 mg/mL
solubility at 1 day ([2]; toluene, organic solvent or mixture, thermodynamic from solid): > 10 mg/mL
solubility at 1 day ([2]; water, thermodynamic from solid): < 1 mg/mL
Resulting Form ([3]; no solvent, RT and 0% RH 6 days): B + A
weight change ([1]; between 10 and 30% RH): over 3%
additional water uptake ([1]; between 30-90% RH): approximately 1.4 wt %
DVS water uptake up to 90 % RH ([1]; listed as A): 4.7 wt % water

Molecule: C[C@]1(C(N)=O)CC[C@@H](n2c(Nc3c(Cl)cc(Cl)cc3Cl)nc3cnc(N[C@@H]4CCOC[C@H]4F)nc32)CC1 [Free Base]
temperature above which crystal form of monohydrate changes [5]: > 60 °C
stability in solution ([5]; pH 1.2 to 7.5, 40° C.): stable
chemical and physical stability in solid state under stress conditions ([5]; solid state, stress conditions): up to seven weeks
solid state stability (in words) [6]: chemically and physically stable in solid state
Physical (40° C./75% RH) ([6]; 40° C./75% RH): Stable
Chemical (60° C.) RRT2.2 [6]: <0.03%
Physical (60° C.) [6]: Dehydration (−),
solubility (physchem [7]): 3.85 mg/mL (≈ 6.74 mM)
pH ([8]; FaSSGF): 2.77
pH ([8]; FaSSIF): 6.37
pH ([8]; FeSSGF): 6.23
pH ([8]; FeSSIF): 4.95
pH at final ([9]; 0.5% HPMC/[…] Tween80): 4.23
pH at final ([9]; SGF): 1.93
pH at final ([9]; SIF): 7.33
pH at final ([9]; Water): 8.11
Conc. at 24 Hrs: 3 µg/mL
Conc. at 24 Hrs (pH 4.23): 178 µg/mL
solubility thermodynamic at 24 h (physchem [10]): 3.48 mg/mL (≈ 6.1 mM)
hygroscopicity (in words) ([1]; listed as monohydrate free base): slightly hygroscopicity

Molecule: CC(=O)Nc1cccc(-n2c(=O)n(C3CC3)c(=O)c3c(Nc4ccc(I)cc4F)n(C)c(=O)c(C)c32)c1 [Trametinib, reference compound]
inhibition of TEAD reporter activity [11]: did not inhibit

Molecule: C[C@]1(C(N)=O)CC[C@@H](n2c(Nc3c(Cl)cc(Cl)cc3Cl)nc3cnc(N[C@@H]4CCOC[C@H]4F)nc32)CC1 [amorphous]
reversible weight change ([1]; between 10 and 50% RH): about 3.5%
DVS water uptake up to 90 % RH [1]: 6.9 wt % water

Molecule: Citrate
hygroscopicity (in words) [1]: low hygroscopicity

The next lines start with results.

solid form after compression [4]: still Form Y
hygroscopicity (in words) [1]: slightly hygroscopic
water uptake [1]: about 2.1 % w/w
Molecule: CC1(C(N)=O)CCC(n2c(Nc3c(Cl)cc(Cl)cc3Cl)nc3cnc(NC4CCOCC4F)nc32)CC1.O=C(O)CC(O)(CC(=O)O)C(=O)O (centres unmarked) [Form Y]

solid form after compression [4]: still Form Z
hygroscopicity (in words) [1]: slightly hygroscopic
water uptake [1]: about 1.6 % w/w
Molecule: CC1(C(N)=O)CCC(n2c(Nc3c(Cl)cc(Cl)cc3Cl)nc3cnc(NC4CCOCC4F)nc32)CC1.O=C(O)CC(O)(CC(=O)O)C(=O)O (centres unmarked) [Form Z]

Chemical (40° C./75% RH) RRT = 2.2 ([6]; 40° C./75% RH): 0.02%
Physical (40° C./75% RH) ([6]; 40° C./75% RH): Stable
Chemical (60° C.) RRT2.2 [6]: 0.05%
Physical (60° C.) [6]: Stable
pH ([8]; FaSSGF): 1.82
pH ([8]; FaSSIF): 6.12
pH ([8]; FeSSGF): 5.66
pH ([8]; FeSSIF): 4.85
pH at final ([9]; 0.5% HPMC/[…] Tween80): 3.06
pH at final ([9]; SGF): 1.17
pH at final ([9]; SIF): 7.22
pH at final ([9]; Water): 3.65
hygroscopicity with respect to monohydrate ([1]; 0-95% RH): < 1.0%
hygroscopicity (in words) [1]: low hygroscopicity
remaining water released ([1]; from 5% RH to dry): ~2.8 % wt
additional moisture sorption ([1]; from 25 to 95% RH): ~1.7%
loss of water content during desorption cycle ([1]; from 95 down to 5% RH): ~1.5%
Molecule: CC1(C(N)=O)CCC(n2c(Nc3c(Cl)cc(Cl)cc3Cl)nc3cnc(NC4CCOCC4F)nc32)CC1.Cl.O (centres unmarked) [HCl Salt]
solid state stability (in words) [6]: chemically and physically stable in solid state

Resulting Form(s) ([3]; Slurry in EtOAc, RT, 5 days): Y + Z
Resulting Form(s) ([3]; Slurry in EtOAc, RT, 10 days): Y + Z
Resulting Form(s) ([3]; Slurry in Toluene, 50° C., 4 days): Z + Y
Resulting Form(s) ([3]; Slurry in Toluene, RT, 5 days): Z + Y
Resulting Form(s) ([3]; Slurry in Toluene, RT, 10 days): Z + Y
Molecule: CC1(C(N)=O)CCC(n2c(Nc3c(Cl)cc(Cl)cc3Cl)nc3cnc(NC4CCOCC4F)nc32)CC1.O=C(O)CC(O)(CC(=O)O)C(=O)O (centres unmarked) [Y + Z]

DVS water uptake [1]: ~2.1 wt % water
Molecule: CC1(C(N)=O)CCC(n2c(Nc3c(Cl)cc(Cl)cc3Cl)nc3cnc(NC4CCOCC4F)nc32)CC1.O=C(O)CC(O)(CC(=O)O)C(=O)O (centres unmarked) [Y]

DVS water uptake [1]: ~1.6 wt % water
Molecule: CC1(C(N)=O)CCC(n2c(Nc3c(Cl)cc(Cl)cc3Cl)nc3cnc(NC4CCOCC4F)nc32)CC1.O=C(O)CC(O)(CC(=O)O)C(=O)O (centres unmarked) [Z]

Approximate Solubility ([12]; 2-MeTHF): S < 0.9 mg/mL
Approximate Solubility ([12]; DCM): S < 1.6 mg/mL
Approximate Solubility ([12]; DMAc): S > 18 mg/mL
Approximate Solubility ([12]; DMSO): S > 22 mg/mL
Approximate Solubility ([12]; EtOAc): S < 1.5 mg/mL
Approximate Solubility ([12]; EtOH): S > 28 mg/mL
Approximate Solubility ([12]; H2O): S < 1.0 mg/mL
Approximate Solubility ([12]; Heptane): S < 1.7 mg/mL
Approximate Solubility ([12]; IPAc): S < 1.3 mg/mL
Approximate Solubility ([12]; MIBK): S < 1.5 mg/mL
Approximate Solubility ([12]; MTBE): S < 1.0 mg/mL
Approximate Solubility ([12]; MeOAc): S < 0.9 mg/mL
Approximate Solubility ([12]; MeOH): S > 31 mg/mL
Approximate Solubility ([12]; NMP): S > 24 mg/mL
Approximate Solubility ([12]; Toluene): S < 1.4 mg/mL
Molecule: CC1(C(N)=O)CCC(n2c(Nc3c(Cl)cc(Cl)cc3Cl)nc3cnc(NC4CCOCC4F)nc32)CC1.Cl (centres unmarked) [anhydrate/amorphous starting material]

DVS wt gain [1]: ~3.6% wt
hygroscopicity (in words) [1]: moderately hygroscopic
mass change ([1]; from 0% RH to 95% RH at 25° C.): 3.6 wt %
Molecule: CC1(C(N)=O)CCC(n2c(Nc3c(Cl)cc(Cl)cc3Cl)nc3cnc(NC4CCOCC4F)nc32)CC1.Cl (centres unmarked) [starting material HCl Salt Form]
